Laboratory results taken from patent US9868698B2, “(2S,4R)-5-(5′-chloro-2′-fluorobiphenyl-4-yl)-4-(ethoxyoxalylamino)-2-hydroxymethyl-2-methylpentanoic acid” (THERAVANCE BIOPHARMA R&D IP, LLC, priority 2015, dated 2018).

How the values were obtained:
[1] = IV/PO pharmacokinetic study in rats (Assay 3); type: in vivo; details: male, Sprague-Dawley, plasma, rat, read-out: AUClast Mean
Method: (§1) Each rat or dog pharmacokinetic study began with formulation of the test compound. Appropriate masses of each test compound were added into a volume of vehicle (e.g. 5% sodium bicarbonate, 5% dextrose in water) such that the final concentration of each compound was appropriate to be dosed at 2 mL/kg. Although a homogenous suspension were acceptable for oral dosing, intravenous dosing solutions were sterile-filtered (0.2 μm) prior to dosing to ensure no particulates were administered.
In the rat study, pre-cannulated male Sprague-Dawley rats (3 per route) between 8 and 10 weeks of age were obtained from Harlan Laboratories (Indianapolis, Ind.). Rats received either a single oral gavage or a single intravenous (via lateral tail vein) dose of the dosing solution. The final dose was typically 0.5-3 mg/kg. Serial blood samples were harvested via the cannula implanted in the jugular vein at 3 minutes, 15 minutes, 30 minutes, 1 hour, 2 hours, 4 hours, 6 hours, and 24 hours post-dose. Sampling was performed either manually or using automated blood samplers. Samples were collected into microtainer tubes containing sodium fluoride, potassium oxalate and paraoxon, and were processed to plasma by refrigerated centrifugation.
(§2) Plasma samples were extracted with 3 volumes of MeCN containing a suitable internal standard. Extracts were reconstituted into 3 volumes of water containing 1% formic acid, and analyzed via HPLC-coupled MS/MS. Plasma concentration-time data were analyzed using the Phoenix software (Pharsight Corp., St. Louis, Mo.) to calculate pharmacokinetic parameters.

NEP = NEP (Homo sapiens, UniProt P08473); test: In vitro enzyme inhibition assay, human NEP (Assay 1); type: biochemical; set-up: purchased R&D Systems 1182-ZN; details: read-out: human pKi (converted)
NEP, sequence (P08473 52-750 limits assumed): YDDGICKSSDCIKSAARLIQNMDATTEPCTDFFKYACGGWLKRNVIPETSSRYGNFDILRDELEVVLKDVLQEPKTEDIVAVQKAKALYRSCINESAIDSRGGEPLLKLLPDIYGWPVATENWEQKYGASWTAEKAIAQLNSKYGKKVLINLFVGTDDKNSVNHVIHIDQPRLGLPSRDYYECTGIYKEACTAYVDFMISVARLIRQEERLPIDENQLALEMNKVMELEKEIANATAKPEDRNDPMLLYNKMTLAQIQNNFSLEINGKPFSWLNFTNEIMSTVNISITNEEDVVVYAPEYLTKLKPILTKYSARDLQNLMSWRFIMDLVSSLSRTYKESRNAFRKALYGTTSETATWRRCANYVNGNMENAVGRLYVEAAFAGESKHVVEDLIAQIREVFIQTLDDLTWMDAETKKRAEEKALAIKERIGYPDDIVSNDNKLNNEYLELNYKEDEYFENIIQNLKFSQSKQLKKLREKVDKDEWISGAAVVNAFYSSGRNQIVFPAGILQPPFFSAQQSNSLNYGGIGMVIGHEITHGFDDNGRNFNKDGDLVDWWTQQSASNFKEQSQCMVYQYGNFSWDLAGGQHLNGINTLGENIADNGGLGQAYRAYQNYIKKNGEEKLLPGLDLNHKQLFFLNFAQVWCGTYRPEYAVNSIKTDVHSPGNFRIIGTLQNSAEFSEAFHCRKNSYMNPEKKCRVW
Method: (§3) The inhibitory activities at human and rat neprilysin (EC 3.4.24.11; NEP) were determined using in vitro assays as described below.
Recombinant human NEP was obtained commercially (R&D Systems, Minneapolis, Minn., catalog number 1182-ZN). The fluorogenic peptide substrate Mca-D-Arg-Arg-Leu-Dap-(Dnp)-OH (Medeiros et al. (1997) Braz. J. Med. Biol. Res. 30:1157-62; Anaspec, San Jose, Calif.) was used.
(§4) The assays were performed in 384-well white opaque plates at 37° C. using the fluorogenic peptide substrate at a concentration of 10 μM in Assay Buffer (50 mM HEPES, pH 7.5, 100 mM NaCl, 0.01% polyethylene glycol sorbitan monolaurate (Tween-20), 10 μM ZnSO4).
(§5) Test compounds were assayed over the range of concentrations from 10 μM to 20 pM. Test compounds were added to the enzyme and incubated for 30 minute at 37° C. prior to initiating the reaction by the addition of substrate. Reactions were terminated after 20 minutes of incubation at 37° C. by the addition of glacial acetic acid to a final concentration of 3.6% (v/v).
(§6) Plates were read on a fluorometer with excitation and emission wavelengths set to 320 nm and 405 nm, respectively. Inhibition constants were obtained by nonlinear regression of the data using the equation (GraphPad Software, Inc., San Diego, Calif.): v=v0/[1+(I/K′)] where v is the reaction rate, v0 is the uninhibited reaction rate, I is the inhibitor concentration and K′ is the apparent inhibition constant.

[2] = IV/PO pharmacokinetic study in dogs (Assay 3); type: in vivo; details: male, beagle, plasma, dog, read-out: AUClast Mean
Method: as §1
In the dog study, male beagle dogs (3 per route) housed at Agilux Laboratories (Worcester, Mass.) and weighing between 7-12 kg received either a single oral gavage or a single intravenous (via indwelling catheter) dose of the dosing solution. The final dose was typically 0.1-2 mg/kg. Serial blood samples were harvested via direct venipuncture at 3 minutes, 15 minutes, 30 minutes, 1 hour, 2 hours, 4 hours, 6 hours, 8 hours, 12 hours, and 24 hours post-dose. All samples were collected manually into microtainer tubes containing sodium fluoride, potassium oxalate and paraoxon, and were processed to plasma by refrigerated centrifugation.
as §2

Rat NEP = biological target: T1, Rat NEP (Rattus norvegicus, UniProt P07861); test: In vitro enzyme inhibition assay, rat NEP (Assay 1); type: biochemical; details: NEP from rat kidneys; read-out: rat pKi (converted)
T1 construct: leaving a viscous oily precipitate containing the enriched membrane fraction; from tissue; host or cells: kidneys of adult Sprague Dawley rats (Triton X-114 enriched membrane fraction)
T1 sequence (P07861 1-750): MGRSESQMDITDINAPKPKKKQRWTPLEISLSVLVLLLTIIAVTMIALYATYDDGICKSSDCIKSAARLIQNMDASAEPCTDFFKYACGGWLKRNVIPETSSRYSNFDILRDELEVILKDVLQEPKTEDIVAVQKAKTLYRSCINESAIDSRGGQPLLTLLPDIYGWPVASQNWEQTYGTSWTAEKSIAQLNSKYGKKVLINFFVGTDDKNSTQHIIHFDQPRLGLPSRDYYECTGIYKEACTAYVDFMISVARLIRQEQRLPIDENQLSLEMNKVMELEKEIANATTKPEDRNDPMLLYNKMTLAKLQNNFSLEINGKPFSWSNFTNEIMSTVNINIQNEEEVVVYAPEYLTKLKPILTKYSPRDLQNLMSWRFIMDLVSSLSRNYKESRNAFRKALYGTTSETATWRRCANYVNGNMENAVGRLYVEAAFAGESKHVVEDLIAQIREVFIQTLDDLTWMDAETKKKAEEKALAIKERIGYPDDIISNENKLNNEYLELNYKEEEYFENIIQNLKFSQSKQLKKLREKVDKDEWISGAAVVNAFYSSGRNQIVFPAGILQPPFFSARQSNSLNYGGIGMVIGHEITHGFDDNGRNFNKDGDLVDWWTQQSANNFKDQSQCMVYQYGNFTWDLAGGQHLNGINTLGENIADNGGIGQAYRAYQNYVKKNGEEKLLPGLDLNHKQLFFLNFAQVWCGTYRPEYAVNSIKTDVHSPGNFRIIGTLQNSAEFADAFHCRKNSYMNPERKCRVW
Method: as §3
Rat NEP was prepared from the kidneys of adult Sprague Dawley rats. Whole kidneys were washed in cold phosphate buffered saline (PBS) and brought up in ice-cold lysis buffer (1% Triton X-114, 150 mM NaCl, 50 mM tris(hydroxymethyl) aminomethane (Tris) pH 7.5; Bordier (1981) J. Biol. Chem. 256: 1604-1607) in a ratio of 5 mL of buffer for every gram of kidney. Samples were homogenized on ice using a polytron hand held tissue grinder. Homogenates were centrifuged at 1000×g in a swinging bucket rotor for 5 minutes at 3° C. The pellet was resuspended in 20 mL of ice cold lysis buffer and incubated on ice for 30 minutes. Samples (15-20 mL) were then layered onto 25 mL of ice-cold cushion buffer (6% w/v sucrose, 50 mM pH 7.5 Tris, 150 mM NaCl, 0.06%, Triton X-114), heated to 37° C. for 3-5 minutes and centrifuged at 1000×g in a swinging bucket rotor at room temperature for 3 minutes. The two upper layers were aspirated off, leaving a viscous oily precipitate containing the enriched membrane fraction. Glycerol was added to a concentration of 50% and samples were stored at −20° C. Protein concentrations were quantitated using a BCA detection system with bovine serum albumin (BSA) as a standard.
as §4, §5, §6

[3] = Dynamic moisture sorption assessment; type: physicochemical
Method: In one embodiment, crystalline form 1′ is characterized by the DMS isotherm in FIG. 4. This form is a non-hygroscopic solid. The total moisture gain observed is less than 1% by weight when exposed to between 5% and 90% relative humidity. No significant hysteresis is found between consecutive sorption-desorption cycles.
DMS measurements were performed using a VTI atmospheric microbalance, SGA-100 system (VTI Corp., Hialeah, Fla. 33016). A weighed sample was used and the humidity was lowest possible value (close to 0% relative humidity) at the start of the analysis. The DMS analysis consisted of a scan rate of 5% relative humidity/step over the full humidity range of 5-90%. The DMS run was performed isothermally at 25° C.

[4] = Accelerated stability study of calcium salt crystals (Example 7); type: physicochemical
Source text: One challenge in pharmaceutical drug development relates to discovering a stable, crystalline form of a drug having a reasonably high melting point. The challenge of the present invention was that crystals of the free acid of Compound 1 could not be obtained. Furthermore, many crystal screens failed, with the exception of two-arginine and calcium crystals of (2S,4R)-5-(5′-chloro-2′-fluorobiphenyl-4-yl)-4-(ethoxyoxalylamino)-2-hydroxymethyl-2-methylpentanoic acid were obtained. However, the arginine crystals (see Example 1) were deliquescent at ambient conditions and were difficult to develop further. On the other hand, the calcium crystals were stable and melted around 239° C. For that reason, an accelerated stability study of Compound 1′ was conducted at the temperatures and % relative humidity (RH) reported below.

[5] = PO, analyte = compound dosed (prodrug)
[6] = IV, analyte = compound dosed (active metabolite)

Compound: CCOC(=O)[C@](C)(CO)C[C@@H](Cc1ccc(-c2cc(Cl)ccc2F)cc1)NC(=O)C(=O)O [Comparison Compound C3, (2S,4R)-5-(5′-Chloro-2′-fluorobiphenyl-4-yl)-2-hydroxymethyl-2-methyl-4-(oxalylamino)pentanoic Acid Ethyl Ester]
- AUC(0-t) [1, 5]: 560 ng·h/mL
- Ki (NEP): 3980 nM
- AUC(0-t) [2, 5]: 950 ng·h/mL
- Ki (Rat NEP): 2000 nM

Compound: CCOC(=O)[C@H](O)C[C@@H](Cc1ccc(-c2cc(Cl)ccc2F)cc1)NC(=O)C(=O)O [Comparison Compound C4, (2R,4R)-5-(5′-Chloro-2′-fluorobiphenyl-4-yl)-2-hydroxy-4-(oxalylamino)pentanoic Acid Ethyl Ester]
- AUC(0-t) [1, 5]: 40 ng·h/mL
- Ki (NEP): 15.8 nM
- AUC(0-t) [2, 5]: 480 ng·h/mL
- Ki (Rat NEP): 7.94 nM

Compound: CCOC(=O)C(=O)N[C@H](Cc1ccc(-c2cc(Cl)ccc2F)cc1)C[C@@H](O)C(=O)O [Comparison Compound C5, (2R,4R)-5-(5′-Chloro-T-fluorobiphenyl-4-yl)-4-(ethoxyoxalylamino)-2-hydroxypentanoic Acid]
- Ki (NEP): 0.2 nM
- AUC(0-t) [2, 5]: 29 ng·h/mL
- Ki (Rat NEP): 0.2 nM

Compound: O=C(O)C(=O)N[C@H](Cc1ccc(-c2cc(Cl)ccc2F)cc1)C[C@@H](O)C(=O)O [Comparison Compound C6, (2R,4R)-5-(5′-Chloro-T-fluorobiphenyl-4-yl)-2-hydroxy-4-(oxalylamino)pentanoic Acid]
- AUC(0-t) [1, 6]: 15000 ng·h/mL
- Ki (NEP): 0.2 nM
- AUC(0-t) [2, 6]: 1280 ng·h/mL
- Ki (Rat NEP): 0.158 nM

Compound: CCOC(=O)C(=O)N[C@H](Cc1ccc(-c2cc(Cl)ccc2F)cc1)C[C@@](C)(CO)C(=O)O [Compound 1′, Calcium (2S,4R)-5-(5′-Chloro-2′-fluoro-[1,1′-biphenyl]-4-yl)-4-(2-ethoxy-2-oxoacetamido)-2-(hydroxymethyl)-2-methylpentanoate]
- hygroscopicity (in words) ([3]; DMS isotherm): non-hygroscopic
- total moisture gain ([3]; between 5% and 90% relative humidity, 25° C.): less than 1 % by weight
- Assay ([4]; 5° C., 0 months): 95.0 % (w/w)
- Purity ([4]; 5° C., 0 months): 97.3 % (a/a)
- Assay ([4]; 5° C., 2 months): 93.4 % (w/w)
- Purity ([4]; 5° C., 2 months): 97.6 % (a/a)
- Assay ([4]; 5° C., 3 months): 92.4 % (w/w)
- Purity ([4]; 5° C., 3 months): 97.5 % (a/a)
- Assay ([4]; 25° C., 60% RH, 0 months): 95.0 % (w/w)
- Purity ([4]; 25° C., 60% RH, 0 months): 97.3 % (a/a)
- Assay ([4]; 25° C., 60% RH, 2 months): 94.4 % (w/w)
- Purity ([4]; 25° C., 60% RH, 2 months): 97.3 % (a/a)
- Assay ([4]; 25° C., 60% RH, 3 months): 92.9 % (w/w)
- Purity ([4]; 25° C., 60% RH, 3 months): 96.8 % (a/a)
- Assay ([4]; 40° C., 75% RH, 0 months): 95.0 % (w/w)
- Purity ([4]; 40° C., 75% RH, 0 months): 97.3 % (a/a)
- Assay ([4]; 40° C., 75% RH, 1 month): 95.5 % (w/w)
- Purity ([4]; 40° C., 75% RH, 1 month): 95.9 % (a/a)
- Assay ([4]; 40° C., 75% RH, 2 months): 92.1 % (w/w)
- Purity ([4]; 40° C., 75% RH, 2 months): 95.3 % (a/a)
- Assay ([4]; 40° C., 75% RH, 3 months): 92.1 % (w/w)
- Purity ([4]; 40° C., 75% RH, 3 months): 93.9 % (a/a)
- stability (in words) ([4]; up to at least three months at the temperatures and relative humidity tested): relatively stable
